From patent US10780076B2, “Inhibition of cancer cell motility” (Northwestern University, priority 2014, dated 2020)

Columns and labels:
[1] = test system: human bone marrow stem cells; test: Hematopoietic stem cell 14-day colony formation assay; assay type: cell-based; settings: colonies at 14 days
Protocol: (FIG. 2A) Cell invasion. Human prostate metastatic cells (PC3, PC3-M), and HPV transformed normal (1532NPTX, I542NPTX) and primary cancer (1532CPTX, 1542CPTX) cells, were treated with 10 μM genistein (G), KBU2046 (46) or vehicle (CO), and after 3 days, cell invasion was measured. Values are mean±SEM. (FIG. 2B) Single cell migration. Cell migration was measured after treatment for 3 days with 10 μM KBU2046 or vehicle (control). Values are mean±SEM. *Denotes Student's t test P value </=0.05, compared to controls. […] Values are mean±SEM. (FIG. 2D) Human cord blood hematopoietic stem cell colony formation assay. Values are the mean±SD number of total, CFU-GM, CFU-GEMM or BFU-E colonies at 14 days after treatment with KBU2046. […]
Additional functional measures of toxicity included a NCI-based screen of the NCI 60-cell line panel (Shoemaker, 2006; herein incorporated by reference in its entirety), expression of estrogen-responsive genes by qRT/PCR (Ding et al., 2007; herein incorporated by reference in its entirety), induction of an estrogen-responsive promoter by luciferase assay (Breen et al., 2013; Catherino and Jordan, 1995; herein incorporated by reference in their entireties), and a hematopoietic stem cell 14-day colony formation assay (Bergan et al., 1996; herein incorporated by reference in its entirety). […] The migration of individual cells was assessed by time-lapse video microscopy.

NCI 60 cell line panel = NCI 60 cell line panel screen; assay type: cell-based, human; settings: initial screening per DTP protocol
Description: FIG. 8. […] KBU2046 was submitted to the Developmental Therapeutics Program (DTP) of the US National Cancer Institute (NCI), underwent initial screening across the NCI 60 cell line panel per DTP protocol (Shoemaker, 2006; herein incorporated by reference in its entirety), and the resultant COMPARE diagram is depicted.
Additional functional measures of toxicity included a NCI-based screen of the NCI 60-cell line panel (Shoemaker, 2006; herein incorporated by reference in its entirety), expression of estrogen-responsive genes by qRT/PCR (Ding et al., 2007; herein incorporated by reference in its entirety), induction of an estrogen-responsive promoter by luciferase assay (Breen et al., 2013; Catherino and Jordan, 1995; herein incorporated by reference in their entireties), and a hematopoietic stem cell 14-day colony formation assay (Bergan et al., 1996; herein incorporated by reference in its entirety). Protein Data Base (PDB) X-ray crystallographic structural data (PDB IDs: IX7R, IX7J) was used to determine what chemical groups of genistein bound to the ER. The migration of individual cells was assessed by time-lapse video microscopy.

[2] = Plasma KBU2046 concentration in chow-treated athymic mice; assay type: in vivo
Protocol: (§1) FIGS. 3A-D. KBU2046 inhibits cancer metastasis and prolongs life. (A, B) Inhibition of PCa metastasis. Cohorts of athymic mice bearing human PCa PC3-M cell orthotopic implants (A), or of non-tumor bearing athymic mice (B), were treated with KBU2046 incorporated into chow, and resultant lung metastasis (A) or plasma KBU2046 concentration (B) measured. Values are the mean±SEM. The relationship between dose and metastasis was evaluated by two-sided ANOVA (A). (C) Comprehensive characterization of KBU2046 phannacokinetics. CD1 mice were dosed with 100 mg KBU2046/kg via oral gavage or intravenous injection (iv), and blood collected at the indicated time points. The dotted horizontal line denotes a concentration of 24 nM, which was the concentration of KBU2046 measured in the blood of mice whose metastasis were suppressed by 92% (A, B). […]
Orthotopic implantation of human PCa cells and quantification of distant metastasis was performed as described (Pavese et al., 2013; herein incorporated by reference in its entirety). […] Quantification of KBU2046 plasma concentrations was performed by LCMS. […] Critical organs were examined for structural damage using a semi-quantitative histological scoring system (Knodell et al., 1981; herein incorporated by reference in its entirety), while their function was assessed by comprehensive clinical laboratory testing of blood samples. […]

[3] = Pharmacokinetics in CD1 mice; assay type: in vivo; settings: single oral dose
Protocol: as §1
FIG. 11. […] (top graph) Concentration versus time plot, expressed as ng/ml. The 100 mg dosing data was re-plotted and expressed as nM. […] Values are parameter estimates from a naive pooled data approach in which single plasma concentrations measured for individual animals were pooled for both routes of administration of both doses and modeled simultaneously.
Orthotopic implantation of human PCa cells and quantification of distant metastasis was performed as described (Pavese et al., 2013; herein incorporated by reference in its entirety). […]

plasma concentrations at which metastasis decreased [2]: 1.1 to 24 nM
time plasma concentration maintained >24 nM [3]: 9.3 h
Structure (SMILES): O=C1c2ccccc2OCC1c1ccc(F)cc1 (racemic) [KBU2046, 4′-fluoroisoflavanone]
toxicity to human bone marrow stem cells [1]: not toxic
cell toxicity in NCI 60 cell line panel (NCI 60 cell line panel): minimal-to-no cell toxicity
